Assay results as given in the NIST ThermoML archive (doi:10.1016/j.tca.2008.05.002).

Assay: molar heat capacity at saturation pressure
Settings: Small (less than 1 g) adiabatic calorimetry

CCCCn1cc[n+](C)c1.O=[N+]([O-])[O-] [1-butyl-3-methylimidazolium nitrate]
Settings | molar heat capacity [J/K/mol]
223.56 K, Crystal 4 | 239.25
224.66 K, Crystal 4 | 240.26
225.64 K, Crystal 4 | 241.27
226.74 K, Crystal 4 | 242.07
227.72 K, Crystal 4 | 243.28
228.81 K, Crystal 4 | 244.08
229.79 K, Crystal 4 | 245.29
230.88 K, Crystal 4 | 246.1
231.86 K, Crystal 4 | 247.3
232.95 K, Crystal 4 | 248.31
233.92 K, Crystal 4 | 249.32
235.01 K, Crystal 4 | 250.32
235.97 K, Crystal 4 | 251.53
237.06 K, Crystal 4 | 252.54
238.03 K, Crystal 4 | 253.54
239.1 K, Crystal 4 | 254.75
239.2 K, Crystal 4 | 254.95
240.07 K, Crystal 4 | 255.55
241.14 K, Crystal 4 | 256.96
241.7 K, Crystal 4 | 257.57
242.11 K, Crystal 4 | 257.77
243.17 K, Crystal 4 | 259.18
244.08 K, Crystal 4 | 260.18
244.15 K, Crystal 4 | 259.98
245.2 K, Crystal 4 | 261.39
246.17 K, Crystal 4 | 262.6
246.45 K, Crystal 4 | 262.8
247.22 K, Crystal 4 | 263.8
248.19 K, Crystal 4 | 265.01
248.81 K, Crystal 4 | 265.61
249.23 K, Crystal 4 | 266.42
250.2 K, Crystal 4 | 267.63
251.15 K, Crystal 4 | 268.43
251.23 K, Crystal 4 | 269.04
252.21 K, Crystal 4 | 270.04
253.23 K, Crystal 4 | 271.45
253.48 K, Crystal 4 | 271.45
254.2 K, Crystal 4 | 272.66
255.22 K, Crystal 4 | 274.27
255.8 K, Crystal 4 | 274.87
256.19 K, Crystal 4 | 275.68
257.2 K, Crystal 4 | 277.29
258.1 K, Crystal 4 | 278.49
258.18 K, Crystal 4 | 278.49
259.18 K, Crystal 4 | 280.3
260.15 K, Crystal 4 | 281.51
260.4 K, Crystal 4 | 282.11
261.14 K, Crystal 4 | 283.32
262.11 K, Crystal 4 | 284.53
262.67 K, Crystal 4 | 286.14
263.1 K, Crystal 4 | 286.54
264.07 K, Crystal 4 | 287.95
264.94 K, Crystal 4 | 289.96
265.05 K, Crystal 4 | 289.56
266.02 K, Crystal 4 | 291.37
267 K, Crystal 4 | 293.79
267.19 K, Crystal 4 | 294.19
267.95 K, Crystal 4 | 295.4
268.93 K, Crystal 4 | 297.81
269.43 K, Crystal 4 | 299.02
269.88 K, Crystal 4 | 299.82
270.85 K, Crystal 4 | 302.44
271.65 K, Crystal 4 | 304.85
271.78 K, Crystal 4 | 304.65
271.8 K, Liquid | 345.1
272.76 K, Crystal 4 | 307.47
273.68 K, Crystal 4 | 310.69
273.85 K, Crystal 4 | 312.1
274.46 K, Liquid | 345.9
274.66 K, Crystal 4 | 313.71
275.56 K, Crystal 4 | 318.94
276.02 K, Crystal 4 | 318.54
276.35 K, Crystal 4 | 310.08
277.02 K, Liquid | 346.71
277.33 K, Crystal 4 | 355.76
277.73 K, Crystal 4 | 345.5
277.82 K, Crystal 4 | 609.71
278.14 K, Crystal 4 | 322.56
278.16 K, Crystal 4 | 408.68
278.25 K, Crystal 4 | 455.57
278.82 K, Crystal 3 | 545.72
279.03 K, Crystal 3 | 470.06
279.41 K, Liquid | 347.51
279.47 K, Crystal 3 | 414.92
279.88 K, Crystal 3 | 382.53
280.31 K, Crystal 3 | 308.07
280.95 K, Crystal 3 | 310.08
281.81 K, Liquid | 348.32
281.84 K, Crystal 3 | 313.91
281.86 K, Crystal 3 | 314.31
282.47 K, Crystal 3 | 319.54
283.34 K, Crystal 3 | 324.98
283.95 K, Crystal 3 | 333.43
284.03 K, Crystal 3 | 333.23
284.21 K, Liquid | 349.12
284.81 K, Crystal 3 | 341.48
285.42 K, Crystal 3 | 355.56
286.1 K, Crystal 3 | 372.26
286.25 K, Crystal 3 | 363.41
286.61 K, Liquid | 349.93
286.8 K, Crystal 3 | 390.78
287.64 K, Crystal 3 | 372.26
288.03 K, Crystal 3 | 432.83
288.12 K, Crystal 2 | 417.54
